Data: ChEMBL document CHEMBL1201862, “PubChem BioAssay data set” (2004)
Calls of active or inactive are those of the source.

Assays:
[1] = target: Beta-2 adrenergic receptor (Homo sapiens, UniProt P07550); test: beta2AR agonists driving receptor internalization, dose response, cell-based, FAP fluorogen, flow cytometry, cherry pick 1 (AID 588763); assay type: functional
H4 = test: Luminescence Cell-Based Dose Response HTS to Identify Activators of 5'UTR Stem-Loop Driven Prion Protein mRNA Translation in H4 Neuroglioblastoma Cells. [Related pubchem assays: 1829 (Project Summary), 1814 (Primary HTS)]; assay type: functional; details: Homo sapiens
[2] = tested on: Streptococcus sp. 'group A'; test: growth inhibition of control SK(-) GAS strain, dose response, counter-screen for streptokinase expression inhibitor project, luminescence, kanamycin, BacTiterGlo, confirmation (AID 1900); assay type: functional, organism-based
[3] = Luminescence Cell-Based Dose Response to Identify Activators of 5'UTR Stem-Loop Driven Prion Protein mRNA Translation in H4-C Neuroglioblastoma Cells. [Related pubchem assays: 1829 (Project Summary), 1814 (Primary HTS)]; assay type: functional
HeLa = test: HeLa cell cytotoxicity, dose response, cytotoxicity control for MITF activator project, CellTiter-Glo luminescence, cherry-pick samples (AID 540259); assay type: functional, cell-based; details: Homo sapiens
Streptokinase A = target: T1, Streptokinase A (Streptococcus pyogenes serotype M1, UniProt P10520); test: S. pyogenes streptokinase expression inhibitors, potency, dose response, plasminogen activation absorbance, OD405 (AID 1914); assay type: functional, Streptococcus pyogenes M1 GAS;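 note: secreted streptokinase activity via plasminogen activation per viability signal from cell pellet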
T1 sequence (P10520 whole entry): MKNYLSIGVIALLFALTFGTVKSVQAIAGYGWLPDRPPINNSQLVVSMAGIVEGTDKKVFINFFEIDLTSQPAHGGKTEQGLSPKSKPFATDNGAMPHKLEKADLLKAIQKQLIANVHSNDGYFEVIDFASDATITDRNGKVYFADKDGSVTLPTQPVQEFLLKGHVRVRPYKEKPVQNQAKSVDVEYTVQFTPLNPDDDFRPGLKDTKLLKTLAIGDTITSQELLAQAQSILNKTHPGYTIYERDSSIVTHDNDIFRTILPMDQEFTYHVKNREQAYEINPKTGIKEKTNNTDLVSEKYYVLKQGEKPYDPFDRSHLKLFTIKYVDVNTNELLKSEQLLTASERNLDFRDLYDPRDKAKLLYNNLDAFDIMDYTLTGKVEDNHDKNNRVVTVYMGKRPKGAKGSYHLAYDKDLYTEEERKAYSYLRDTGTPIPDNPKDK

[4] = Luminescence Cell-Based Dose Confirmation HTS to Identify Activators of 5'UTR Stem-Loop Driven Alpha-Synuclein mRNA Translation in H4 Neuroglioblastoma Cells. [Related pubchem assays: 1829 (Project Summary), 1814 (Primary HTS)]; assay type: functional
[5] = Luminescence Cell-Based Dose Confirmation to Identify Activators of 5'UTR Stem-Loop Driven Alpha-Synuclein mRNA Translation in H4 Neuroglioblastoma Cells. [Related pubchem assays: 1829 (Project Summary), 1814 (Primary HTS)]; assay type: functional
[6] = Luminescence Cell-Based Dose Response HTS to Identify Activators of Luciferase Translation or Activity in H4 […] Cells. [Related pubchem assays: 1829 (Project Summary), 1814 (Primary HTS)]; assay type: functional
[7] = Luminescence Cell-Based Dose Response to Identify Activators of Luciferase Translation or Activity in H4-C Neuroglioblastoma Cells. [Related pubchem assays: 1829 (Project Summary), 1814 (Primary HTS)]; assay type: functional
Streptococcus = test: Group A Streptococcus viability loss, dose response, counter-screen for streptokinase expression inhibitor project, luminescence, BacTiterGlo (AID 1915); assay type: functional, organism-based;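 note: potency for reduction of bacterial viability or growth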
Phospholipase A2 = Phospholipase A2 (Homo sapiens, UniProt P04054); assay type: functional;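 note: confirmatory dose-response counterscreen on phospholipase A2, testing hits that came from an ultra-high-throughput screen for ATG4B inhibitors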
Sequence of Phospholipase A2 (P04054 whole entry): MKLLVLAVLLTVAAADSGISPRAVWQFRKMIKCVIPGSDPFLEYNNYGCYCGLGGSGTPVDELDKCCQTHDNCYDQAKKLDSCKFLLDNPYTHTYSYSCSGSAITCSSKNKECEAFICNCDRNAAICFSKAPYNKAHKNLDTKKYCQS

Cysteine protease ATG4B = target: T2, Cysteine protease ATG4B (Homo sapiens, UniProt Q9Y4P1); assay type: functional;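 note: Fluorescence-based dose-response confirmation assay measuring inhibition of ATG4B activity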
T2 sequence (Q9Y4P1 whole entry): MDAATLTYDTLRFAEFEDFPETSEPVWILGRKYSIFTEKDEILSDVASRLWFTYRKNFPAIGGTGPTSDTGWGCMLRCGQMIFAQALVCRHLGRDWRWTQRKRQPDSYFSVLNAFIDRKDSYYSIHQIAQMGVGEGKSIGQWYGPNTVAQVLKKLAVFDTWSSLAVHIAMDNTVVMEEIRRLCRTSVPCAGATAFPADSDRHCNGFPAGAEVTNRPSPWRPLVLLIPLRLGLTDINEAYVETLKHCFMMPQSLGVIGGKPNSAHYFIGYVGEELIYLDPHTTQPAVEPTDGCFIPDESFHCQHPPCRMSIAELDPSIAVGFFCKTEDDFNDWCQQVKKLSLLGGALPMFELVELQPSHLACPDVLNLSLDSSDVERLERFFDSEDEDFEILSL

Caspase-3 = target: T3, Caspase-3 (Homo sapiens, UniProt P42574); assay type: functional;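 note: Dose-response selectivity test against caspase-3 for candidate inhibitors of sentrin-specific proteases (SENPs)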
T3 sequence (P42574 whole entry): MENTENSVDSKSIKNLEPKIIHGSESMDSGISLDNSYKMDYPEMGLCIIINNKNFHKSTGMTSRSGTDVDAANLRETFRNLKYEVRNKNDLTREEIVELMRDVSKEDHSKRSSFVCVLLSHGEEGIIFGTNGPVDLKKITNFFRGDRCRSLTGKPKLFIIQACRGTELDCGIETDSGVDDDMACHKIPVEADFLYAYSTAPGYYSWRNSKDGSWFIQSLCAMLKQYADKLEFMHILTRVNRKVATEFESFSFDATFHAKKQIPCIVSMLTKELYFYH

[8] = target: T4, Sentrin-specific protease 8 (Homo sapiens, UniProt Q96LD8); assay type: functional;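 note: luminescence read-out of SENP8 inhibition, dose-response confirmation following an ultra-high-throughput screen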
T4 sequence (Q96LD8 whole entry): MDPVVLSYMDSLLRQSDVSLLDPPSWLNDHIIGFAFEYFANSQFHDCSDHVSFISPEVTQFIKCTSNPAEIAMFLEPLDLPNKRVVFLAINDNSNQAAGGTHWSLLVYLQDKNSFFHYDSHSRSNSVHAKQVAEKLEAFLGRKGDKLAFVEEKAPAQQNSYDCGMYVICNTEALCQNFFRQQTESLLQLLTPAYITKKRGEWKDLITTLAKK

[9] = target: T5, Sentrin-specific protease 6 (Homo sapiens, UniProt Q9GZR1); assay type: functional;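 note: Luminescence-based dose-response confirmatory assay of SENP6 inhibition, following up an ultra-high-throughput screen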
T5 sequence (Q9GZR1 whole entry): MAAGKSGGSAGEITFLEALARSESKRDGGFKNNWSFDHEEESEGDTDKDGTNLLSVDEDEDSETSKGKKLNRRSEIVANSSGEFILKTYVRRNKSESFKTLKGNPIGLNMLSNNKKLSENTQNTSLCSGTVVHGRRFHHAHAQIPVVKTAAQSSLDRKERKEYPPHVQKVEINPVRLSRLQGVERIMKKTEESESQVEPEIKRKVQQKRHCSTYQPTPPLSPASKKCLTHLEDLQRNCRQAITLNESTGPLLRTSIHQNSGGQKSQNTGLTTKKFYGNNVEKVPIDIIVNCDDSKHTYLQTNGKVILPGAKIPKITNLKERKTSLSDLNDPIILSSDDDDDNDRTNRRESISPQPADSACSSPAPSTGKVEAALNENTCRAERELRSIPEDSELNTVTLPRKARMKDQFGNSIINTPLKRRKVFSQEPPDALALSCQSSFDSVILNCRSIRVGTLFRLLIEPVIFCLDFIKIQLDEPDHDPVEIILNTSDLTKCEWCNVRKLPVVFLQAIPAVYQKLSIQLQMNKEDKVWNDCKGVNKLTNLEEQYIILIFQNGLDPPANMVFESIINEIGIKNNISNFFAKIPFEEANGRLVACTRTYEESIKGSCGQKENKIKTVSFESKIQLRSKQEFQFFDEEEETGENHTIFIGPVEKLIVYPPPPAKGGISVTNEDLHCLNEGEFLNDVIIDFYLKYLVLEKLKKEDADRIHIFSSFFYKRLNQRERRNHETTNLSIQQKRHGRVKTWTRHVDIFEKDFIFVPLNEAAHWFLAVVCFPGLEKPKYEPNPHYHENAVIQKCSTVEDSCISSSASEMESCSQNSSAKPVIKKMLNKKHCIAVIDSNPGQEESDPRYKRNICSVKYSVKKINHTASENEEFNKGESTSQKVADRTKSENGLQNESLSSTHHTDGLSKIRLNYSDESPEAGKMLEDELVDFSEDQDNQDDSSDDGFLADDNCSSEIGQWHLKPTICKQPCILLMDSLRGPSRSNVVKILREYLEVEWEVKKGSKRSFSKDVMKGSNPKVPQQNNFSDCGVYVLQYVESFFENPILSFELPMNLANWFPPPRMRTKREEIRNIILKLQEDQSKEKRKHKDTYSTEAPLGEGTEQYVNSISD

[10] = target: T6, Sentrin-specific protease 7 (Homo sapiens, UniProt Q9BQF6); assay type: functional;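 note: Luminescence-based dose-response confirmation of ultra-high-throughput screening hits, measuring inhibition of SENP7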
T6 sequence (Q9BQF6 whole entry): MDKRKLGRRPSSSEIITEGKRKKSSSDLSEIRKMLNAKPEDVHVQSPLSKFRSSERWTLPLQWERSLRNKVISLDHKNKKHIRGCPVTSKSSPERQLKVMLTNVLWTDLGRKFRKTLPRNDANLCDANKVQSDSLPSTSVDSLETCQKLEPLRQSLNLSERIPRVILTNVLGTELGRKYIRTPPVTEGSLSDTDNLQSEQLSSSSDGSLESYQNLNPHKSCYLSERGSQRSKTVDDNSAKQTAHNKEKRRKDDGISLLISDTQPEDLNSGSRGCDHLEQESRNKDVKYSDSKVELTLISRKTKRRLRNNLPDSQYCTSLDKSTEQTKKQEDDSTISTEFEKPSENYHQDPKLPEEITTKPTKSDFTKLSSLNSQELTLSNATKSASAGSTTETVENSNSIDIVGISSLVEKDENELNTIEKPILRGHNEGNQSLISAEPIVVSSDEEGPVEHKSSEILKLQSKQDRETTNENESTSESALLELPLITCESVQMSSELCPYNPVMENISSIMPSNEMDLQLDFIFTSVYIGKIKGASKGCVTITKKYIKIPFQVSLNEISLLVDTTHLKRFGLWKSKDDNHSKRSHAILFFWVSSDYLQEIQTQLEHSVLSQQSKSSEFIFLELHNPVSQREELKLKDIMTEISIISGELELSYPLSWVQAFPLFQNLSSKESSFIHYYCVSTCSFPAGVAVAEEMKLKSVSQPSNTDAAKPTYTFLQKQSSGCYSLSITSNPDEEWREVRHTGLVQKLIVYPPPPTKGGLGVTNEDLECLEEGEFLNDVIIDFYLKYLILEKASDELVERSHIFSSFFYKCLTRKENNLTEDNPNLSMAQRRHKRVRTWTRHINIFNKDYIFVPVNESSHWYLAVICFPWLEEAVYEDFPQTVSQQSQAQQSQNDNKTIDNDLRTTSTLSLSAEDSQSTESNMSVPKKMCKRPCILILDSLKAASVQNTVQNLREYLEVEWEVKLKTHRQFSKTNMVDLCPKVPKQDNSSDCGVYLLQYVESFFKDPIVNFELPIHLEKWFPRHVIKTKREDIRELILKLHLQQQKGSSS

[11] = Luminescence Cell-Based Dose Retest to Confirm Inhibitors of Cancer Stem Cells. [Related pubchem assays (depositor defined):AID2717, AID2721]; assay type: functional; details: Homo sapiens
[12] = target: Heat shock protein HSP 90-alpha (Homo sapiens, UniProt P07900); assay type: functional, organism-based

Sequence of Beta-2 adrenergic receptor (P07550 whole entry): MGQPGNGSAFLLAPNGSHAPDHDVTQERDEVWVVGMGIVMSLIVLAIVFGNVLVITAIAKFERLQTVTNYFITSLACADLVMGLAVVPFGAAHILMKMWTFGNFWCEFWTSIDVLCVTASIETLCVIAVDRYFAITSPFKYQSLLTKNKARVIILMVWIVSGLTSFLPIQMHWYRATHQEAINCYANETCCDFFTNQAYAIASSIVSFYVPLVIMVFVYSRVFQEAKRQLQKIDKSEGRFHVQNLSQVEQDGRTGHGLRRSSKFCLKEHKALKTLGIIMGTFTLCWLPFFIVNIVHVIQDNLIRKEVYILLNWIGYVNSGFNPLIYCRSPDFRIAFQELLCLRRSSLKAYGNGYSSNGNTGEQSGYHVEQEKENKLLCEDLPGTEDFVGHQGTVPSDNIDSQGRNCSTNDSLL

In the case of `Cc1cccc2nc(COc3ccc4ccccc4c3Br)cn12`, the EC50 [1] is reported as 3.71 µM (active), the EC50 (H4) is reported as > 120 µM (not active) and the EC50 [2] is reported as 12.7 µM (active). The EC50 [3] was 0.638 µM (active), the AC50 (HeLa) was 73 µM (active) and the EC50 (Streptokinase A) was > 150 µM (not active). The EC50 [4] was 0.167 µM (active), the EC50 [5] was 0.34 µM (active) and the EC50 [6] was < 0.1 µM (inconclusive). The EC50 [7] was 0.561 µM (active) and the EC50 (Streptococcus) was > 150 µM (not active).

For `O=C(O)c1cccc(CSc2nc(-c3ccc(Cl)cc3)cc(C(F)(F)F)n2)c1`, the IC50 (Phospholipase A2) was 11.4 µM (active) and the IC50 (Cysteine protease ATG4B) was 12.8 µM (active).

With `CCCc1ccc(OCc2nc(-c3ccc(NC(=O)c4ccco4)cc3)no2)cc1` the EC50 [1] was 0.161 µM (active).

For `Cc1ccc(C(=O)Nc2nc(C)c(C(=O)Nc3ccc4c(c3)CCC4)s2)cc1`, the IC50 (Caspase-3) was 19.8 µM (active), the IC50 [8] was > 100 µM (inactive) and the IC50 [9] was > 100 µM (inactive). The IC50 [10] was 8.21 µM (active) and the AC50 [11] was 0.458 µM (active).

With `O=C(Cn1cccc1C(=O)c1ccccc1)NCCC1=CCCCC1` the IC50 (Phospholipase A2) was 11.7 µM (active) and the IC50 (Cysteine protease ATG4B) was 20.1 µM (inactive).

In the case of `COc1ccc2c(c1)CCc1c(C(=O)N3CCc4ccccc4C3)noc1-2`, the AC50 [12] is reported as 6.29 µM (active).

With `O=C(NC(=S)NCCC1=CCCCC1)c1ccc(Br)o1` the IC50 (Phospholipase A2) was 9.44 µM (active), the IC50 (Cysteine protease ATG4B) was 15.9 µM (active) and the EC50 (H4) was 18.1 µM (active). For the same compound, the EC50 [4] was 83 µM (active) and the EC50 [6] was 15.1 µM (active).

With `O=C(N/N=C/c1cccc(Oc2ccccc2)c1)c1cccc(O)c1` the IC50 (Caspase-3) was 31.2 µM (active), the IC50 [8] was 24 µM (active) and the IC50 [9] was 25.7 µM (active). The IC50 [10] was 10.7 µM (active).

In the case of `COc1ccc(/C=N/Nc2nncc3ccccc23)c(OC)c1`, the IC50 (Caspase-3) is reported as 7.23 µM (active), the IC50 [8] is reported as 44.8 µM (active) and the IC50 [9] is reported as 11.1 µM (active). For the same compound, the IC50 [10] was 3.46 µM (active).
